# Experiment: Retention in stomach, 123I label, single-photon emission computed tomography
# Type: in vivo
# Conditions: mice, 24 hours after feeding, 123I labeled, SPECT (FIG. 3)
# From the text: Then, in order to examine the retention time of the present drug structure in stomach, sample B of embodiment 1 was labeled with radioactive Iodine 123 (^123I) and fed to experimental mice. Single-photon emission computed tomography was respectively conducted at 1st, 4th, and 24th hour after feeding to observe the location of the present drug structure inside the mice's bodies.
smiles,measurement,value
CC1(C)S[C@@H]2[C@H](NC(=O)[C@H](N)c3ccc(O)cc3)C(=O)N2[C@H]1C(=O)O [amoxicillin],presence in stomach after feeding,had no longer existed in the stomach after 24 hours

# From patent publication US20140356433A1, “Pharmaceutical Carrier and Drug Structure Using the Same” (priority 2013, published 2014)
